The test system of data set [1] is normal human lung fibroblast (HLF) cells. As to the kind of experiment: Cytotoxicity assay (MTT) on normal human lung fibroblast cells. The settings on record: 72 h.
Procedure: (§1) The cytotoxic potencies of test compounds were determined on normal human lung fibroblast (HLF) cells. Cells were seeded into 96-well plate at 3000 cells/well. The stock solutions of test compounds were dissolved in DMSO and serially diluted to the required concentrations for 7 doses, and the final testing concentrations for these compounds were 0.3, 1, 3, 10, 30, 100, 300 µM. […] The fraction of surviving cells after compound treatment was determined using the MTT assay.
The nature of the next data set: in vitro. The settings on record: human, normal human lung fibroblast (HLF) cells.
Data set [2] relates to CAPAN-1 (BRCA2-deficient) cells. The experiment in a line: CellTiter Glo assay for cell growth inhibition, CAPAN-1. To be noted: read-out: IC50 (BRCA-2, CAPAN-1), CAPAN-1, 96 h.
Procedure: (§2) The growth inhibition potential of test compounds was determined on BRCA1-deficient cell lines HCC1937 and BRCA2-deficient cell lines CAPAN-1. The stock solutions of test compounds were dissolved in DMSO and serially diluted to the required concentrations for 9 doses. […] 60 μL medium was removed from each well and plates were kept at room temperature for 30 min. 60 μL reagent (Celltiter Glo assay kit, Promega, Sunnyvale, CA, USA) per well was added and plates were shaked for 2 min. Cells were incubated avoiding light at room temperature for 30 min and the luminescence value was recorded by multiplate reader. GraphPad Prism 5 was used to plot effect-dose curves and calculate the IC50 values of compounds.
In data set [3] the test system is HCC1937 (BRCA1-deficient) cells. The experiment in a line: CellTiter Glo assay for cell growth inhibition, HCC1937. To be noted: read-out: IC50 (BRCA-1, HCC1937), HCC1937, 96 h. (ATP-based viability assays read luminescence as a measure of living cells.)
Procedure: as §2
For the next data set, the target named is T1, PARP-1 enzyme (Homo sapiens, UniProt P09874).
T1 construct: purchased Trevigen 4690-096-K
T1 sequence (P09874 whole entry): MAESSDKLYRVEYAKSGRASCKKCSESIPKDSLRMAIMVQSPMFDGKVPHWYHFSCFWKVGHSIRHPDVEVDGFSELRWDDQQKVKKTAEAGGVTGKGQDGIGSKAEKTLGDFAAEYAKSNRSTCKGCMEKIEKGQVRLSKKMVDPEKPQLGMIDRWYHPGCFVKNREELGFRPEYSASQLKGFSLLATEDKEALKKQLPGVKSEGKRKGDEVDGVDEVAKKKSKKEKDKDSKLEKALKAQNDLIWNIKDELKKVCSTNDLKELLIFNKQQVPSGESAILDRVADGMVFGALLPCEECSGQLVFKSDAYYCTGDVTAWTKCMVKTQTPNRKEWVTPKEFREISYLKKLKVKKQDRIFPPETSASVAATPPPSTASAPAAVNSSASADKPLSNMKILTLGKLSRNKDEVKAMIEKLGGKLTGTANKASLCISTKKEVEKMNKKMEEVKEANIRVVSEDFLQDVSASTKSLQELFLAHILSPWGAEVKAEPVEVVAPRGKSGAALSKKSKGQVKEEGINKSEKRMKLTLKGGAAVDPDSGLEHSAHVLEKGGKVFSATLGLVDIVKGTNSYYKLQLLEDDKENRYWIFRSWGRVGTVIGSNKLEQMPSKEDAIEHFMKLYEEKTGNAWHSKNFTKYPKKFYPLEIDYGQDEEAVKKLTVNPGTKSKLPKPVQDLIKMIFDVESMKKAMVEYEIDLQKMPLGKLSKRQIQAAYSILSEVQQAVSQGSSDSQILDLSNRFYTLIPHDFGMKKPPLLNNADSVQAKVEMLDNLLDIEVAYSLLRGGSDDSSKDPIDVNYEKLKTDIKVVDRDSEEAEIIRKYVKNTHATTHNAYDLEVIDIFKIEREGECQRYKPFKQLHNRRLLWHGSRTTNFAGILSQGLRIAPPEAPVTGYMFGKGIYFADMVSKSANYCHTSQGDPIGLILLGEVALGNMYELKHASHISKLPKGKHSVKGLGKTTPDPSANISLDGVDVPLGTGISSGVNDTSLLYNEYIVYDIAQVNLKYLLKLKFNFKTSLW
The experiment in a line: PARP-1 enzymatic inhibition assay (Trevigen 96-well kit, fluorescence). To be noted: logit method, six concentrations, read-out: IC50 (PARP-1 enzyme inhibitory activity). Type of data set: biochemical. As to the method: All target compounds were evaluated in vitro for their PARP-1 enzyme inhibitory activity.
The procedure was according to the instructions provided by the manufacturer. […] 25 μL of 1 × Buffer was added to each well and 25 μL of appropriate 2 × NAD^+ standards were added to 1B to 1G and 2B to 2G well of 96-well plate for standard curve. 25 μL of 2 μM NAD was added to 1H and 2H for PARP control. 25 μL of 2 μM NAD was added to wells for test compounds, then serially diluted compounds were added, and 1 μL of DMSO was added to the standard well. 25 μL of PARP Mix minus enzyme was added to 1A to 1G and 25 μL of PARP Mix plus enzyme was added to PARP control and compounds well. […] Then 50 μL stop solution was added to each well, and mixed with pipette. […] Then draw the standard curve and calculate the inhibition rate of each test compound.

Where [4] appears, read: CellTiter Glo, nine concentrations.

Molecules are shown by their SMILES. Like-named read-outs stand apart in the source and are kept apart here.

Procedure for in vitro: as §1

As for `C[C@]1(c2nc3c(C(N)=O)cccc3[nH]2)CCCN1` [Veliparib, veliparib, reference compound], the “Inhibition Rate” value in data set [1] (0.3 µM) was 1.00%; in data set [1] (1 µM), −0.28%; in data set [1] (3 µM), −1.20%; in data set [1] (10 µM) it was −1.35%; in data set [1] (30 µM), −0.06%; in data set [1] (100 µM), −0.45%. The “Inhibition Rate” value in data set [1] (300 µM) is listed as 93.64%. For the same molecule, the IC50 at 72 h in “in vitro” is about 200 µM. Moreover, the IC50 was determined as 57.7 ± 12.4 µM in data set [2] (setting [4]) and 127 ± 18.1 µM in data set [3] (setting [4]).

As for `COc1ccc(-c2nc3c(C(N)=O)scc3[nH]2)cc1` [Compound 16j, 2-(4-Methoxyphenyl)-1H-thieno[3,4-d]imidazole-4-carboxamide], the IC50 on PARP-1 enzyme (Table 2 series (16a–n)) stood at 0.102 µM; in data set [2] (Homo sapiens), 46.6 ± 0.62 µM; in data set [3] (Homo sapiens), 55.14 ± 0.24 µM. Also, the “Inhibition Rate” value in data set [1] (0.3 µM) turned out to be 0.68%; in data set [1] (1 µM), 2.85%; in data set [1] (3 µM) it was 2.68%; in data set [1] (10 µM) it was 6.95%; in data set [1] (30 µM) it was 9.43%; in data set [1] (100 µM), 12.63%. The “Inhibition Rate” value in data set [1] (300 µM) came out at 32.37%. In the data set “in vitro”, this molecule gave an IC50 at 72 h of over 300 µM.

The molecule `NC(=O)c1scc2[nH]c(-c3ccccc3Cl)nc12` [Compound 16d, 2-(2-Chlorophenyl)-1H-thieno[3,4-d]imidazole-4-carboxamide] came in with a melting point of 202 to 204 °C. Further, at PARP-1 enzyme (Table 2 series (16a–n)), the IC50 worked out at 1.49 µM.

`NC(=O)c1scc2[nH]c(-c3ccccc3C(F)(F)F)nc12` [Compound 16h, 2-(2-(Trifluoromethyl)phenyl)-1H-thieno[3,4-d]imidazole-4-carboxamide] had a melting point of 241 to 243 °C.

`Cc1cccc(-c2nc3c(C(N)=O)scc3[nH]2)c1` [Compound 16m, 2-(m-Tolyl)-1H-thieno[3,4-d]imidazole-4-carboxamide] had a melting point of 254 to 255 °C. Besides, at PARP-1 enzyme (Table 2 series (16a–n)), the IC50 was determined as 5.79 µM.

`Cc1ccc(C(=O)N2CCN(C(=O)c3ccc(-c4nc5c(C(N)=O)scc5[nH]4)cc3)CC2)cc1` [Compound 13e, 2-(4-(4-(4-Methylbenzoyl)piperazine-1-carbonyl)phenyl)-1H-thieno[3,4-d]imidazole-4-carboxamide]: the melting point was 308 to 310 °C.

Turning to `NC(=O)c1scc2[nH]c(-c3cccc(C(F)(F)F)c3)nc12` [Compound 16g, 2-(3-(Trifluoromethyl)phenyl)-1H-thieno[3,4-d]imidazole-4-carboxamide], the IC50 on PARP-1 enzyme (Table 2 series (16a–n)) was found to be 0.151 µM; in data set [2] (Homo sapiens), 38.6 ± 6.75 µM; in data set [3] (Homo sapiens) it was 31.3 ± 0.35 µM. Besides, the “Inhibition Rate” value in data set [1] (0.3 µM) is reported as −1.65%; in data set [1] (1 µM), −1.02%; in data set [1] (3 µM) it was −0.63%; in data set [1] (10 µM), 0.76%; in data set [1] (30 µM), 4.13%; in data set [1] (100 µM), 69.88%. For the same molecule, in data set [1] (300 µM), the “Inhibition Rate” value is given as 99.40%. In “in vitro”, this molecule gave an IC50 at 72 h of 77.6 ± 1.5 µM.

As to `COc1cccc(-c2nc3c(C(N)=O)scc3[nH]2)c1` [Compound 16k, 2-(3-Methoxyphenyl)-1H-thieno[3,4-d]imidazole-4-carboxamide], the melting point lay in the range of 230 to 242 °C. The IC50 on PARP-1 enzyme (Table 2 series (16a–n)) amounted to 1.49 µM.

Regarding `NC(=O)c1scc2[nH]c(-c3ccc(C(=O)N4CCN(C(=O)C5CC5)CC4)cc3)nc12` [Compound 13j, 2-(4-(4-(Cyclopropanecarbonyl)piperazine-1-carbonyl)phenyl)-1H-thieno[3,4-d]imidazole-4-carboxamide], the melting point fell in the range of 272 to 273 °C. Moreover, the IC50 at PARP-1 enzyme (Table 1 series (12, 13a–j)) amounted to 1.53 µM.

In the case of `NC(=O)c1scc2[nH]c(-c3ccc(C(F)(F)F)cc3)nc12` [Compound 16f, 2-(4-(Trifluoromethyl)phenyl)-1H-thieno[3,4-d]imidazole-4-carboxamide], the melting point is 283 to 285 °C. The IC50 at PARP-1 enzyme (Table 2 series (16a–n)) turned out to be 0.548 µM.

`Cc1ccc(CN2CCN(C(=O)c3ccc(-c4nc5c(C(N)=O)scc5[nH]4)cc3)CC2)cc1` [Compound 13i, 2-(4-(4-(4-Methylbenzyl)piperazine-1-carbonyl)phenyl)-1H-thieno[3,4-d]imidazole-4-carboxamide] had a melting point of 272 to 273 °C.

`NC(=O)c1scc2[nH]c(-c3ccccc3)nc12` [Compound 16a, 2-Phenyl-1H-thieno[3,4-d]imidazole-4-carboxamide] gave a melting point of 256 to 257 °C. In addition, on PARP-1 enzyme (Table 2 series (16a–n)), the IC50 stood at 0.827 µM.

As to `NC(=O)c1scc2[nH]c(-c3ccc(F)cc3)nc12` [Compound 16b, 2-(4-Fluorophenyl)-1H-thieno[3,4-d]imidazole-4-carboxamide], the melting point lay in the range of 244 to 246 °C. For the same molecule, on PARP-1 enzyme (Table 2 series (16a–n)), the IC50 stood at 0.738 µM.

Take `NC(=O)c1scc2[nH]c(-c3ccc(C(=O)N4CCN(C(=O)c5ccc(Cl)cc5)CC4)cc3)nc12` [Compound 13d, 2-(4-(4-(4-Chlorobenzoyl)piperazine-1-carbonyl)phenyl)-1H-thieno[3,4-d]imidazole-4-carboxamide]: the melting point was in the range of 247 to 249 °C.

For `NC(=O)c1scc2[nH]c(-c3c(Cl)cccc3Cl)nc12` [Compound 16e, 2-(2,6-Dichlorophenyl)-1H-thieno[3,4-d]imidazole-4-carboxamide], the melting point lay in the range of 210 to 212 °C.

With `NC(=O)c1scc2[nH]c(-c3ccc(C(=O)N4CCN(C(=O)c5ccc(Br)cc5)CC4)cc3)nc12` [Compound 13c, 2-(4-(4-(4-Bromobenzoyl)piperazine-1-carbonyl)phenyl)-1H-thieno[3,4-d]imidazole-4-carboxamide], the melting point fell in the range of 294 to 296 °C. The IC50 at PARP-1 enzyme (Table 1 series (12, 13a–j)) is 1.87 µM.

As for `NC(=O)c1scc2[nH]c(-c3ccc(C(=O)N4CCN(C(=O)c5cccs5)CC4)cc3)nc12` [Compound 13a, 2-(4-(4-(Thiophene-2-carbonyl)piperazine-1-carbonyl)phenyl)-1H-thieno[3,4-d]imidazole-4-carboxamide], the IC50 on PARP-1 enzyme (Table 1 series (12, 13a–j)) turned out to be 2.57 µM.

For the molecule `NC(=O)c1scc2[nH]c(-c3ccc(C(=O)N4CCN(Cc5ccccc5)CC4)cc3)nc12` [Compound 13f, 2-(4-(4-Benzylpiperazine-1-carbonyl)phenyl)-1H-thieno[3,4-d]imidazole-4-carboxamide], the IC50 at PARP-1 enzyme (Table 1 series (12, 13a–j)) came to 3.86 µM.

`NC(=O)c1scc2[nH]c(-c3ccc(Cl)cc3)nc12` [Compound 16c, 2-(4-Chlorophenyl)-1H-thieno[3,4-d]imidazole-4-carboxamide]: the melting point lay within 245 to 246 °C. Also, the IC50 on PARP-1 enzyme (Table 2 series (16a–n)) came to 0.354 µM.

Take `NC(=O)c1scc2[nH]c(-c3ccc(C(=O)N4CCNCC4)cc3)nc12` [Compound 12, 2-(4-(Piperazine-1-carbonyl)phenyl)-1H-thieno[3,4-d]imidazole-4-carboxamide]: at PARP-1 enzyme (Table 1 series (12, 13a–j)), the 50% inhibitory concentration (IC50) was determined as 0.723 µM.

Turning to `N#Cc1ccc(CN2CCN(C(=O)c3ccc(-c4nc5c(C(N)=O)scc5[nH]4)cc3)CC2)cc1` [Compound 13h, 2-(4-(4-(4-Cyanobenzyl)piperazine-1-carbonyl)phenyl)-1H-thieno[3,4-d]imidazole-4-carboxamide], the melting point is 284 to 286 °C. Besides, the IC50 on PARP-1 enzyme (Table 1 series (12, 13a–j)) was 3.72 µM.

For the molecule `NC(=O)c1scc2[nH]c(-c3ccc(C(=O)N4CCN(C(=O)c5ccccc5)CC4)cc3)nc12` [Compound 13b, 2-(4-(4-Benzoylpiperazine-1-carbonyl)phenyl)-1H-thieno[3,4-d]imidazole-4-carboxamide], the melting point was 270 to 272 °C. In addition, at PARP-1 enzyme (Table 1 series (12, 13a–j)), the IC50 was found to be 3.76 µM.

`NC(=O)c1scc2[nH]c(-c3ccc(C(=O)N4CCN(Cc5ccc(Br)cc5)CC4)cc3)nc12` [Compound 13g, 2-(4-(4-(4-Bromobenzyl)piperazine-1-carbonyl)phenyl)-1H-thieno[3,4-d]imidazole-4-carboxamide] showed a melting point of 285 to 288 °C.

Regarding `O=C(c1cc(Cc2n[nH]c(=O)c3ccccc23)ccc1F)N1CCN(C(=O)C2CC2)CC1` [Olaparib, olaparib, reference compound], the “Inhibition Rate” value in data set [1] (0.3 µM) is given as 1.88%; in data set [1] (1 µM) it was 1.83%; in data set [1] (3 µM), 1.10%; in data set [1] (10 µM), 1.37%; in data set [1] (30 µM) it was 1.04%; in data set [1] (100 µM), 29.60%. In data set [1] (300 µM), the “Inhibition Rate” value was determined as 91.45%. The midpoint of inhibition in the data set “in vitro”, the IC50 at 72 h, lay at 134 ± 3.14 µM. For the same molecule, the IC50 was 13.4 ± 1.16 µM in data set [2] (Homo sapiens) and 133 ± 14.4 µM in data set [3] (Homo sapiens).

`Cc1ccccc1-c1nc2c(C(N)=O)scc2[nH]1` [Compound 16n, 2-(o-Tolyl)-1H-thieno[3,4-d]imidazole-4-carboxamide]: the melting point lay in the range of 222 to 223 °C. For the same molecule, on PARP-1 enzyme (Table 2 series (16a–n)), the IC50 worked out at 0.328 µM.

What is called IC50 is the midpoint of a concentration-inhibition curve. As usually defined, the melting point is the temperature, or range, at which the solid turns liquid.

For the origin of these results see publication PMC6273152, “Design, Synthesis, and Biological Evaluation of Novel PARP-1 Inhibitors Based on a 1H-Thieno[3,4-d] Imidazole-4-Carboxamide Scaffold” (Molecules, 2016).
